From paper PMC5461267, “Membrane Guanylate Cyclase catalytic Subdomain: Structure and Linkage with Calcium Sensors and Bicarbonate” (Frontiers in Molecular Neuroscience, 2017)
Positions count from the first letter of the chain named.

What was measured:
[1] = target: T1, ROS-GC1 (rod outer segment guanylate cyclase type 1), full-length recombinant (Bos taurus, UniProt P55203, A1013R/N1009A); test: biochemical
T1 construct: gene GUCY2D
T1 sequence (P55203 57-1110 N1009A/A1013R): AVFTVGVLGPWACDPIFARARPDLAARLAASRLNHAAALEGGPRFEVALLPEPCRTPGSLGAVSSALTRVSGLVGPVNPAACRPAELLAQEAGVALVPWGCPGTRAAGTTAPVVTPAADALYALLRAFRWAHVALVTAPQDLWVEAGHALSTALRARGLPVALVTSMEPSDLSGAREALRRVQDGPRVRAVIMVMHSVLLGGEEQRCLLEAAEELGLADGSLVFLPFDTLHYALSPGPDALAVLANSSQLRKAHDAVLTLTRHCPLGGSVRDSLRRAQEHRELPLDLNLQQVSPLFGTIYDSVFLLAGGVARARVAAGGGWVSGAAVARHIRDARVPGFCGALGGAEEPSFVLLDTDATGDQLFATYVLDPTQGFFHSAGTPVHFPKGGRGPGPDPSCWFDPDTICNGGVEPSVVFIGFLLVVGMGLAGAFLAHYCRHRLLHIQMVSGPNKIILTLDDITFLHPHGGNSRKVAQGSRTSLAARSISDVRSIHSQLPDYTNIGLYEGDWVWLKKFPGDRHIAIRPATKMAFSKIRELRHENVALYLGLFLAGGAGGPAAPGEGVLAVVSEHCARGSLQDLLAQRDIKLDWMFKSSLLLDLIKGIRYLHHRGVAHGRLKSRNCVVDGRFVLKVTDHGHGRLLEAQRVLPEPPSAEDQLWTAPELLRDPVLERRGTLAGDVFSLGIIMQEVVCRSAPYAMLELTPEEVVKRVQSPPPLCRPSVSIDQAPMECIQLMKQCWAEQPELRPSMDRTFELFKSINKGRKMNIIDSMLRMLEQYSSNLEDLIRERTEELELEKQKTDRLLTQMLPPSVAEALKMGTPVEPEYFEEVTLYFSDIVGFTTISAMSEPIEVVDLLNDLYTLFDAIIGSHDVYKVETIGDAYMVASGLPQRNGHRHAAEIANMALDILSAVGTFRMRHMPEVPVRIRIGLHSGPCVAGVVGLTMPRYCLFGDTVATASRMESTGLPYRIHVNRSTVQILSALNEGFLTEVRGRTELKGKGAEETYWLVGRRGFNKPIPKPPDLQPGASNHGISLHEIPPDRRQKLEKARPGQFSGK

[2] = target: T2, ROS-GC1 (rod outer segment guanylate cyclase type 1), full-length recombinant (Bos taurus, UniProt P55203, A1013R/D934A); test: biochemical
T2 construct: gene GUCY2D
T2 sequence (P55203 57-1110 D934A/A1013R): T1 sequence (P55203 57-1110 N1009A/A1013R) with D878A, A953N

EC50 [1]: ~25 mM
EC50 [2]: ~30 mM
SMILES: O=C(O)O [bicarbonate]
